Like-named read-outs stand apart in the source and are kept apart here.
What was measured:
HEK293 cells [1] = assay: MTT assay, noncancerous HEK293; format: cell-based, human; settings: exposure 72 h, read-out: 50% inhibitory concentration (IC50) HEK293
Method: (§1) The in vitro antiproliferative activity of novel organic compounds HL^1–HL^4 and corresponding copper(II) complexes 1–4 was tested in the breast cancer cell line MDA-MB-231, hepatocellular carcinoma cell line LM3, and human embryonic kidney cell line HEK293 and then compared to those of the previously reported paullones HL^5–HL^7 and copper(II) complexes 5–7,[39],[44] as well as latonduines HL^8–HL^11 and copper(II) complexes 8–11.[34] […] The in vitro anticancer activity was determined by the colorimetric MTT assay with an exposure time of 72 h.
(§2) Human breast adenocarcinoma MDA-MB-231 and human embryonic kidney HEK293 cells were obtained from ATCC. Hepatocellular carcinoma LM3 cells were a kind gift of Prof. Kan Man Hui (Duke-NUS Medical School). All cells were cultured in DMEM medium containing 10% FBS in tissue culture 75 cm^2 flasks (BDBiosciences, Singapore) at 37 °C in a humidified atmosphere of 95% air and 5% CO2. All stock solutions were prepared in DMSO. The amount of actual Cu concentration in stock solutions was verified by ICP-OES.
(§3) The cytotoxicity of the compounds was determined by the colorimetric MTT assay. The cells were harvested from culture flasks by trypsinization and seeded into CELLSTAR 96-well microculture plates at the seeding density of 6000 cells per well (6 × 10^4 cells/mL). […] Optical densities were measured at 570 nm using the BioTekH1 Synergy microplate reader. […]

[2] = Solution stability (UV-vis, ESI-MS, 1H NMR); format: physicochemical; settings: aqueous solution containing 1% DMSO, 72 h
Method: First, UV–vis kinetic studies were performed with the ligands HL^2 and HL^4 (Figure S30) and the copper(II) complexes 1–4 in aqueous solutions containing 1% DMSO (Figures S31 and 32). Additionally, the stability of the copper(II) complex 4 was also measured in phosphate-buffered saline (PBS) (pH ∼ 7.4) containing 3% DMSO over 24 h. […] Additional peaks which could be assigned to the dissociated ligand or any its fragments due to a hypothetical ligand degradation have not been registered. In addition to UV–vis data, the stability and purity of complex 4 were tested by analytical HPLC-HR ESI MS using methanol or acetonitrile with 0.1% formic acid as the eluent over 10 min. A single peak at around 1 min corresponding to [Cu^II(L^4)]^+ (found m/z = 506.9939 (Figure S23), calcd m/z for C23H17BrCuN5 507.0063) was registered in agreement with other experiments. In addition, the stability of HL^4 in 1:1 DMSO-d6/D2O at 25 °C was monitored by ^1H NMR spectroscopy. […] In addition, solution stability of the lead complex 4 was studied in ethanol-cell culture medium (1:1 v/v) by monitoring the electronic absorption spectra in the visible region within a time period of 8 h (Figure S34, Supporting Information).

LM3 cells [3] = assay: MTT antiproliferative assay, LM3; format: cell-based; settings: exposure 72 h, read-out: 50% inhibitory concentration (IC50) LM3
Method: as §1, §2, §3

MDA-MB-231 cells [4] = assay: MTT antiproliferative assay, MDA-MB-231; format: cell-based, human; settings: exposure 72 h, read-out: 50% inhibitory concentration (IC50) MDA-MB-231
Method: as §1, §2, §3

HEK293 cells [5] = tested on: HEK293 cells; design: method as in doi:10.1021/acs.organomet.9b00229; settings: MTT assay, exposure 72 h; read-out: 50% inhibitory concentration (IC50) HEK293; cited from earlier work
MDA-MB-231 cells [6] = tested on: MDA-MB-231 cells; design: method as in PMID 34995063; settings: MTT assay, exposure 72 h; read-out: 50% inhibitory concentration (IC50) MDA-MB-231; cited from earlier work
LM3 cells [7] = tested on: LM3 cells; design: method as in PMID 34995063; settings: MTT assay, exposure 72 h; read-out: 50% inhibitory concentration (IC50) LM3; cited from earlier work

With `C(=N\N=C1/NCc2ccccc2-c2[nH]c3ccccc3c21)/c1ccccn1` [HL^1] as the compound, how does the IC50 (HEK293 cells [1]) read?
The IC50 was 2000 ± 100 nM.

What about the “stability by UV–vis absorption spectra” value [2] of the same compound?
The value was “no changes in the UV–vis absorption spectra over 72 h”.

And the IC50 (LM3 cells [3])?
The IC50 was 1400 ± 200 nM.

What about the IC50 (MDA-MB-231 cells [4]) of the same compound?
The IC50 was 1500 ± 100 nM.

For `N.N.[Cl][Pt][Cl]` [cisplatin], which IC50 (HEK293 cells [5]) is on record?
Its IC50 is 3400 ± 1100 nM.

What about the IC50 (MDA-MB-231 cells [6]) of the same compound?
The IC50 was 21000 ± 5000 nM.

What about the IC50 (LM3 cells [7]) of the same compound?
The IC50 was 10000 ± 3000 nM.

Reference: PMC9490829, “Elucidation of Structure–Activity Relationships in Indolobenzazepine-Derived Ligands and Their Copper(II) Complexes: the Role of Key Structural Components and Insight into the Mechanism of Action” (Inorganic Chemistry, 2022)
